# Assay results as given in US8778913B2, “Antimicrobial compositions for treating microbial infections” (priority 2006, dated 2014).
# Where two headings read alike, the source gives them in different places.
# Experiments:
# [1] = tested on: staphyloxanthin biosynthesis; assay: S. aureus pigment (staphyloxanthin) formation; type: cell-based, Staphylococcus aureus; conditions: for IC50: Staphylococcus aureus
# From the text: (§1) Wild-type S. aureus strain (Pig1), isolated from the skin of a child with atopic dermatitis. Streptococcus pyogenes strain 5448 is a well-characterized serotype M1T1 clinical isolate. CD1 and C57Bl/6 mice were purchased from Charles River. The gp91^Phos−/− mice were bred at the Veteran's Administration Medical Center, San Diego and maintained on trimethoprim/sulfamethoxazole prophylaxis until 3 d prior to experiments. S. aureus and S. pyogenes were propagated in Todd-Hewitt broth (THB) or on THB agar (Difco, Detroit, Mich.). Unless otherwise indicated, all experiments were performed with bacteria derived from S. aureus 36-48 h stationary phase cultures or S. pyogenes 24 h stationary phase cultures, a point when pigmentation phenotypes were readily apparent.
# A series of known SQS inhibitors were tested for inhibition of staphyloxanthin biosynthesis.
# [2] = molecular target: T1, CrtM (dehydrosqualene synthase) (Staphylococcus aureus, UniProt A9JQL9); assay: Recombinant CrtM enzyme inhibition; type: biochemical, S. aureus
# T1 construct: made in house; host or cells: E. coli
# T1 sequence (A9JQL9 1-287): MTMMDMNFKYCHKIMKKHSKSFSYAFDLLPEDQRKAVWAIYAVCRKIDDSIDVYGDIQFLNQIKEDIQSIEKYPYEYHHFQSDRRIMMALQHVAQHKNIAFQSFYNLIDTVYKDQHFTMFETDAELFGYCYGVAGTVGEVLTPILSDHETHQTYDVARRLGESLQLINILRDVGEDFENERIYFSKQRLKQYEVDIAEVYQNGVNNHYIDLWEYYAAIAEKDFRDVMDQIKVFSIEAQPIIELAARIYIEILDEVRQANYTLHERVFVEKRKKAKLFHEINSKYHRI
# Protocol: A series of known SQS inhibitors were tested for inhibition of staphyloxanthin biosynthesis. […] Since Formula III (and its analogs) have been advanced through Phase II human clinical trials as cholesterol-lowering agents, the agent is clearly of potential interest as a new lead compound inhibiting staphyloxanthin virulence factor formation in S. aureus.
# NCI-H460 = assay: Growth of human cell line NCI-H460; type: cell-based
# Protocol: (§2) Inhibition of staphyloxanthin biosynthesis by formula III could represent a purely virulence factor-based therapy for S. aureus infection. […] However, after incubation with 100 μM formula III, the resulting non-pigmented S. aureus were ˜15-fold more susceptible to killing by 1.5% hydrogen peroxide and ˜4-fold less able to survive in freshly isolated human whole blood than were normally pigmented S. aureus treated with PBS control. As expected, formula III had no effect on the growth of three human cell lines (MCF-7, NCI-H460 and SF-268) since there only cholesterol biosynthesis is targeted, and cholesterol is generally abundant in serum (or diet).
# S. aureus [3] = assay: Whole blood killing assay; type: cell-based, Staphylococcus aureus
# Protocol: Bacteria were washed twice in PBS, diluted to an inoculum of 10^4 cfu in 25 μl PBS, and mixed with 75 μl of freshly drawn human or mouse blood in heparinized tubes. The tubes were incubated at 37° C. for 4 h with agitation, at which time dilutions were plated on THA for enumeration of surviving cfu.
# S. aureus [4] = assay: S. aureus growth inhibition in culture; type: cell-based, Staphylococcus aureus
# Protocol: The compound of Formula III was prepared as described in Magnin et al., α-Phosphonosulfonic acids: Potent and selective inhibitors of squalene synthase, J. Med. Chem. 39 (1996) 657-660, and tested in S. aureus growth inhibition and in pigment formation.
# as §1
# Inhibition of staphyloxanthin biosynthesis by formula III could represent a purely virulence factor-based therapy for S. aureus infection. […]
# S. aureus [5] = assay: In vivo mouse model of S. aureus skin infection
# Protocol: Ten to 16 week old CD-1 or gp91^Phox−/− mice were injected subcutaneously in one flank (chosen randomly) with the bacterial test strain, and simultaneously in the opposite flank with a different strain for direct comparison. Bacterial cultures were washed, diluted and resuspended in PBS mixed 1:1 with sterile Cytodex beads (Amersham) at the specified inoculum, following an established protocol for generating localized S. aureus and S. pyogenes subcutaneous infection. Lesion size, as assessed by the maximal length×width of the developing ulcers, was recorded daily. Cumulative lesion size represents the total sum of lesion sizes from all animals in each treatment group on a given day. At day 8 (S. aureus) or day 5 (S. pyogenes), animals were euthanized, skin lesions excised, homogenized in PBS, and plated on THA for quantitative culture.
# S. aureus [6] = assay: Systemic (intraperitoneal) S. aureus challenge in mice; type: in vivo, mouse
# Protocol: Here cfu counts are measured in the kidneys.
# 0/6 mice treated with the compound of Formula III had detectable bacteria in either organ.
# Given the in vitro abilities of formula III treatment to increase S. aureus susceptibility to oxidants and blood (neutrophil-mediated) clearance, in vivo testing was performed. Under intraperitoneal challenge one group of mice (n=14) was treated with […] b.i.d. (days −1, 0, 1 and 2), and a second group (n=13) with equivalent volume injections of PBS control.
# S. aureus [7] = assay: Hydrogen peroxide susceptibility assay; type: cell-based, Staphylococcus aureus; conditions: after incubation with 100 μM; vs PBS control
# Protocol: (§3) Tests for susceptibility to oxidants were performed either in PBS (S. aureus) or THB (S. pyogenes). Hydrogen peroxide (H2O2) was added to 1.5% final concentration, […] bacteria incubated at 37° C. for 1 h, then 1,000 U/ml of catalase (Sigma) added to quench residual H2O2. Dilutions were plated on THA for enumeration of surviving cfu. For the singlet oxygen assay, 10^8 S. aureus or 4×10^8 S. pyogenes were incubated at 37° C. in individual wells of a 24-well culture plate in the presence or absence of 1-6 μg/ml methylene blue and situated exactly 10 cm from a 100-watt light source. Bacterial viability was assessed after 1-3 h by plating dilutions on THA.
# SF-268 = assay: Growth of human cell line SF-268; type: cell-based
# Protocol: as §2
# MCF-7 = assay: Growth of human cell line MCF-7; type: cell-based
# Protocol: as §2
# [8] = tested on: staphyloxanthin biosynthesis; conditions: earlier report; cited from earlier work
# S. aureus [9] = assay: Singlet oxygen susceptibility assay; type: cell-based, Staphylococcus aureus
# Protocol: as §3
structure (smiles),measurement,setting,value
O=P([O-])([O-])C(CCCc1cccc(Oc2ccccc2)c1)S(=O)(=O)[O-].[K+].[K+].[K+] (racemic) [Formula III],effect on pigment formation,[1],potent effect
same,IC50,"[1]; 48 h, after 2 days at 37° C. with shaking (Table 1 title), read-out: IC50 (concentration for 50% pigment formation)",~2000 nM
same,IC50,"[1]; read-out: IC50, inhibition of staphyloxanthin biosynthesis",~1000 nM
same,IC50,[2]; S. aureus enzyme expressed in E. coli,600 nM
same,Ki,[2]; corresponding to the IC50,~1.5 nM
same,effect on growth of human cell line,NCI-H460,no effect
same,"ED50, whole blood killing of S. aureus",S. aureus [3]; FIG. 8,~20 µM
same,decrease in ability to survive in freshly isolated human whole blood,"S. aureus [3]; after incubation with 100 μM, vs PBS control",~4 fold
same,enhancement in whole blood killing of S. aureus,S. aureus [3]; at 40 μM (FIG. 8),~3 fold
same,effect on cell growth,S. aureus [4]; S. aureus growth inhibition,no detectable effect
same,effect on S. aureus growth characteristics or survival in culture,"S. aureus [4]; up to 2 mM, through 48 hr",did not affect
same,lesion size,S. aureus [5]; 200 μM (FIG. 9A),major decrease
same,ill effects in mice,S. aureus [5]; 200 μM or 1000 μM,no apparent ill effects
same,lesion size,S. aureus [5]; 1000 μM (FIG. 9B),major decrease
same,mice with cfus below the detection threshold (kidneys),"S. aureus [6]; 0.5 mg b.i.d. days −1, 0, 1, 2, sacrifice at 72 h",8/13
same,S. aureus bacterial counts in the kidneys vs control group,"S. aureus [6]; 0.5 mg b.i.d. days −1, 0, 1, 2, sacrifice at 72 h, P<0.001",significantly lower
same,mice with detectable bacteria in the spleen,S. aureus [6]; after 4 days (FIG. 12A),0/6
same,mice with detectable bacteria in the kidneys,S. aureus [6]; after 4 days (FIG. 12B),0/6
same,increase in susceptibility to killing by 1.5% hydrogen peroxide,S. aureus [7],~15 fold
same,effect on growth of human cell line,SF-268,no effect
same,effect on growth of human cell line,MCF-7,no effect
"CCCC(C(=O)OCCN(CC)CC)(c1ccccc1)c1ccccc1 [SKF 525-A, 2-diethylaminoethyl-2,2-diphenyl-valerate, reference compound]",pigment production in WT S. aureus,[1]; WT strain grown in presence of agent (FIG. 4a),dose-dependent decrease
same,ability of WT S. aureus to survive in human whole blood,S. aureus [3]; WT S. aureus (FIG. 4c),decrease
same,effect on blood survival of ΔCrtM mutant,S. aureus [3]; ΔCrtM mutant control,no significant effects
same,pigment formation in S. aureus (previously shown),[8],inhibit pigment formation
same,susceptibility to singlet oxygen killing,S. aureus [9]; WT S. aureus (FIG. 4b),dose-dependent increase
same,effect on oxidant susceptibility of ΔCrtM mutant,S. aureus [9]; ΔCrtM mutant control,no significant effects
